In test [1] the test system is Escherichia coli. In words: Antimicrobial activity against Escherichia coli at 50 ug/ml after 12 hrs by microbroth dilution method. Type of test: functional, organism-based.
The subject of test [2] is U-87 MG. Nature of the test: Antiproliferative activities against human U-87 MG cells by SRB assay. It is filed as functional, cell-based, U-87MG ATCC.
Test [3] relates to Candida albicans. Nature of the test: Antimicrobial activity against Candida albicans at 50 ug/ml after 12 hrs by microbroth dilution method. Type of test: functional, organism-based. (In broth dilution the organism is exposed to a series of concentrations in liquid medium.)
In test [4] the test system is U-251. Nature of the test: Antiproliferative activities against human U-251 cells by SRB assay. It is filed as functional, cell-based. Background: Sulforhodamine B stains cellular protein and so reports cell mass.
The test system of test [5] is Staphylococcus aureus. Nature of the test: Antimicrobial activity against methicillin-resistant Staphylococcus aureus at 50 ug/ml after 12 hrs by microbroth dilution method. It is filed as functional, organism-based.
The test system of test [6] is U-251. In words: Antiproliferative activities against human U-251 cells at 50 uM by SRB assay. It is filed as functional, cell-based.
In test [7] the test system is U-87 MG. Nature of the test: Antiproliferative activities against human U-87 MG cells at 50 uM by SRB assay. The following applies: u-87mg atcc. It is filed as functional, cell-based.

Usually IC50 stands for the concentration needed to halve the response being measured. A lower IC50 goes with higher potency.

Calls of active or inactive are those of the source. No cut-off for these calls is given here.

For `CC(=O)c1nc(C(=O)NCCc2ccccc2)cc2c3ccccc3n(C)c12`, the result in test [1], in test [3] and in test [5] was inactive. Besides, the IC50 worked out at 7.4 µM in test [2] and 12 µM in test [4].

`CO[C@@]1(C)N(/C=C\c2ccccc2)C(=O)c2cc3c4ccccc4n(C)c3c(=O)n21`: the outcome in test [1], in test [3] and in test [5] was inactive. For the same compound, the IC50 in test [2] turned out to be 2.3 µM; in test [4] it was 12 µM.

`O=C(NCCc1ccccc1)c1cc2c([nH]c3ccccc32)c(=O)[nH]1`: the outcome in test [1], in test [3] and in test [5] was inactive. Moreover, the IC50 result in test [6] and in test [7] was “Not Active” throughout.

Consider `CO[C@@]1(C)N(/C=C/c2ccccc2)C(=O)C2=C[C@@]3(C(=O)N(C)c4ccccc43)C(=O)N21`, for which the result in test [1], in test [3] and in test [5] was inactive. Also, the IC50 was 7.2 µM in test [2] and 5.8 µM in test [4].

Turning to `CO[C@@]1(C)N(C[C@@H](O)c2ccccc2)C(=O)c2cc3c4ccccc4n(C)c3c(=O)n21`, the result in test [1], in test [3] and in test [5] was inactive. In addition, the IC50 in test [2] is 29 µM; in test [4], 36 µM.

Regarding `CO[C@@]1(C)N(/C=C/c2ccccc2)C(=O)c2cc3c4ccccc4n(C)c3c(=O)n21`, the outcome in test [1], in test [3] and in test [5] was inactive. The 50% inhibitory concentration (IC50) came to 4.5 µM in test [2] and 17 µM in test [4].

With `CO[C@@]1(C)N(CCc2ccccc2)C(=O)c2cc3c4ccccc4n(C)c3c(=O)n21`, the result in test [1], in test [3] and in test [5] was inactive. Besides, the half-maximal inhibitory concentration (IC50) came out at 8.9 µM in test [2] and 27 µM in test [4].

As for `Cn1c2ccccc2c2cc3n(c(=O)c21)[C@@](C)(O)N(CCc1ccccc1)C3=O`, the outcome in test [1], in test [3] and in test [5] was inactive. In addition, the IC50 entry in test [6] and in test [7] was “Not Active” each time.

Take `CO[C@@]1(C)N(C[C@H](O)c2ccccc2)C(=O)c2cc3c4ccccc4n(C)c3c(=O)n21`: the result in test [1], in test [3] and in test [5] was inactive. Besides, the IC50 in test [2] was 17 µM; in test [4], 19 µM.

For `CC(=O)c1nc(C(=O)NC[C@H](O)c2ccccc2)cc2c3ccccc3n(C)c12`, the outcome in test [1], in test [3] and in test [5] was inactive. Further, the IC50 result in test [6] and in test [7] was “Not Active” each time.

As for `CO[C@@]1(C)N(/C=C/c2ccccc2)C(=O)c2cc3c([nH]c4ccccc43)c(=O)n21`, the result in test [1], in test [3] and in test [5] was inactive. In addition, the IC50 in test [2] is 43 µM; in test [4] it was 36 µM.

`COc1cccc2c1C(=O)c1c(O)c3c(c(O)c1C2=O)C[C@@](O)(C(=O)CO)C[C@@H]3O[C@H]1C[C@H](N)[C@H](O)[C@H](C)O1` [DOXORUBICIN]: the IC50 in test [2] came to 0.6 µM; in test [4], 3.9 µM.

Consider `CCCCCc1[nH]c(=O)c2cnccc2c1C`, for which the outcome in test [1], in test [3] and in test [5] was inactive. Moreover, the IC50 result in test [6] and in test [7] was “Not Active” in each case.

Take `CC(=O)c1nc(C(=O)NCCc2ccccc2)cc2c1[nH]c1ccccc12`: the result in test [1], in test [3] and in test [5] was inactive. Also, the values for the IC50 in test [2] and in test [4] were 13 µM and 12 µM, respectively.

`Cn1c2ccccc2c2cc(C(=O)NCCc3ccccc3)[nH]c(=O)c21`: the outcome in test [1], in test [3] and in test [5] was inactive. The results for the IC50 in test [2] and in test [4] were 11 µM and 13 µM, respectively.

For `CC(=O)NC[C@H](OC(=O)c1cc2c3ccccc3n(C)c2c(=O)[nH]1)c1ccccc1`, the outcome in test [1], in test [3] and in test [5] was inactive. Further, the values for the IC50 in test [2] and in test [4] were 19 µM and 15 µM, respectively.

Turning to `COc1cc(/C=N/OCCc2ccccc2)nc(-c2ccccn2)c1`, the result in test [1], in test [3] and in test [5] was inactive. Further, the values for the IC50 in test [2] and in test [4] were 6.5 µM and 2 µM, respectively.

With `CO[C@@]1(C)N(/C=C\c2ccccc2)C(=O)c2cc3c([nH]c4ccccc43)c(=O)n21`, the result in test [1], in test [3] and in test [5] was inactive. For the same compound, the IC50 result in test [6] and in test [7] was “Not Active” each time.

For the origin of these results see ChEMBL document CHEMBL4665777, “Bioactive Alkaloids from the Actinomycete Actinoalloteichus sp. ZZ1866” (J Nat Prod, 2020).
